Data set [1] addresses T1, hCNT3 (Homo sapiens, UniProt Q9HAS3).
T1 sequence (Q9HAS3 1-691): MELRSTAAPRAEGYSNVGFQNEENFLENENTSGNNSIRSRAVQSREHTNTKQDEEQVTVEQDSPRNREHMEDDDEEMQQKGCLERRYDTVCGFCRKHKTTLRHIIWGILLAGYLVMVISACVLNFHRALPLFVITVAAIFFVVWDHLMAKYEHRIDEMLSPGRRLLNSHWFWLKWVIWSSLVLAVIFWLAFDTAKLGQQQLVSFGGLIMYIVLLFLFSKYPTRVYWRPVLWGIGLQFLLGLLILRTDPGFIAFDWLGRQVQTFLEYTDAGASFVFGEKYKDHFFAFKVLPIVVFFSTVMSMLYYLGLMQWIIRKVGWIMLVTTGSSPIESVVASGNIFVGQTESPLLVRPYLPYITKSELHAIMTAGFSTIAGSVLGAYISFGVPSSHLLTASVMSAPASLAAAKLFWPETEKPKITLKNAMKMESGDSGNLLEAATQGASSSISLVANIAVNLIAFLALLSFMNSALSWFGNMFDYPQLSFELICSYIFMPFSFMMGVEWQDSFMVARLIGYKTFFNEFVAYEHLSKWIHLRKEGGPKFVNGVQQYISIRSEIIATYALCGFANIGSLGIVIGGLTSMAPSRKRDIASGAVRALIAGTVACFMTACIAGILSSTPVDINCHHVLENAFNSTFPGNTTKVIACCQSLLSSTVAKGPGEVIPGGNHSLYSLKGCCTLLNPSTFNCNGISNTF
The conditions noted are these: 100-fold non-radioactive troxacitabine, differentiated HL-60.
Excerpt: The ability of a high concentration (100-fold) of non-radioactive troxacitabine to inhibit the uptake of ^3H]uridine by hCNT3 was examined in a differentiated HL-60 model system [Ritzel et al. (2000), supra].

In data set [2] the target is T2, hENT2 (Homo sapiens, UniProt Q14542).
T2 sequence (Q14542 1-456): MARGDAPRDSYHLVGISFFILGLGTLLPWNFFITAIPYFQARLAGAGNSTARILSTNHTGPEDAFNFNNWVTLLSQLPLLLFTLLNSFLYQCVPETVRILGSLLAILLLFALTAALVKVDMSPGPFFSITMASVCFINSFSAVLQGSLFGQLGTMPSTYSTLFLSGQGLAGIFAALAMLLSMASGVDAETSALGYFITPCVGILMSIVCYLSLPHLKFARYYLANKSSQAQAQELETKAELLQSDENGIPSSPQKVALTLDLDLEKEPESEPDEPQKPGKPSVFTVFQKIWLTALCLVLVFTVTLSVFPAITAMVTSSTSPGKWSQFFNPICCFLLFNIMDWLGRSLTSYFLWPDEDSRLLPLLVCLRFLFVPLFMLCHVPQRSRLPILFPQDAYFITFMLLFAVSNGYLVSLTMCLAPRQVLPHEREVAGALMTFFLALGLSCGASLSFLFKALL
Description: B.Uptake of [^3H]troxacitabine either in the absence ( ? ) or presence of 100 nM NBMPR (▴), 100 μM dilazep (▾), 1 mM non-radioactive troxacitabine (♦) or 20 μM dipyridamole (●), using an expanded scale of 0-15 pmol/10^6 cells. Each data point represents the mean (±standard deviation) of three determinations.
Briefly, for adherent cells, uptake assays are conducted at room temperature under zero-trans conditions in either sodium-containing transport buffer (20 mM Tris/HCl, 3 mM K2HPO4, 1 mM MgCl2.6H2O, 2 mM CaCl2, 5 mM glucose and 130 mM NaCl, pH 7.4, 300±15 mOsm) or sodium-free transport buffer with NaCl replaced by N-methyl-D-glucamine. […] After the plates are drained, the cells are lysed with 5% Triton X-100 and mixed with Ecolite scintillation fluid to measure the cell-associated radioactivity (Beckman LS 6500 scintillation counter; Beckman-Coulter Canada, Mississauga, ON). Uptake at the zero time-point is determined by treating cells for 10 min at 4° C. with transport buffer containing 100 μM dilazep, then adding the radioactive nucleoside for 2 s before reaction termination as described above. […] Uptake at the zero time-point is determined by adding cells to cold transport buffer containing radiolabeled permeant and dilazep, and immediate centrifugation. Cell pellets are lysed and cell-associated radioactivity measured. […]

Data set [3] deals with T3, hENT1 (Homo sapiens, UniProt Q99808).
T3 sequence (Q99808 1-456): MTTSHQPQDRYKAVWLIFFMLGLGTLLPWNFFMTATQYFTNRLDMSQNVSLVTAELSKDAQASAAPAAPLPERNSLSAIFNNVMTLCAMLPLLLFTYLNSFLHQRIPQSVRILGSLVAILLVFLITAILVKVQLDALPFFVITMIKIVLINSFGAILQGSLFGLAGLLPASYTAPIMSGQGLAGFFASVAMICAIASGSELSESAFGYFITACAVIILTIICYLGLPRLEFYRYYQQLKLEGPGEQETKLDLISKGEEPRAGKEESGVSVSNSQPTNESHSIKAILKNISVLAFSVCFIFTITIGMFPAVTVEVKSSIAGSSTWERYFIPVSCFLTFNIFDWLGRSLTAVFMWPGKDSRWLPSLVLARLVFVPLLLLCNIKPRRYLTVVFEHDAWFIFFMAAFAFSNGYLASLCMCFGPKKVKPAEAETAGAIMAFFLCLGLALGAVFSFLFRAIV
As to the kind of experiment: Cellular uptake assay of [3H]nucleoside in CEM cells (es activity). Details: endogenous in cells. Particulars: compared with uridine. The class given is in vitro ADME. How it is done:
FIG. 1 Comparative uptake of 30 μM [^3H]-troxacitabine in CEM (Panel A) and CEM/ARAC8C (Panel B) cells. [^3H]-Uridine uptake in either the presence or absence of the hENT1 inhibitor, NBMPR or 5 mM non-radioactive uridine was included for comparison as a control substrate.
(§1) Cancer Res., 56: 4187-4191.
The transport of [^3H]uridine was inhibited in the presence either of the hENT1 inhibitor, NBMPR, or excess non-radioactive uridine.

The target in data set [4] is T3, hENT1. In words: Cellular uptake assay of [3H]nucleoside in DU145 cells, with or without NBMPR or excess non-radioactive troxacitabine. Details: The presence of functional es-mediated transport (hENT1) in DU145 cells; endogenous in cells; host or cells: DU145 cells. The class given is in vitro ADME. How it is done:
as §1
This experiment is designed to show whether [^3H]L-troxacitabine (10 μM) is taken up by DU145 cells and if the rate of uptake is affected by the addition of high concentrations (1 mM) of non-radioactive troxacitabine.

Regarding `Nc1ccn([C@@H]2CO[C@H](CO)O2)c(=O)n1` [Troxacitabine, troxacitabine], the “effect on [3H]uridine uptake by hCNT3” value in data set [1] is “no effect on uridine uptake”. Further, the “inhibition of uptake by NBMPR, dilazep, dipyridamole or excess non-radioactive troxacitabine” value in data set [2] was “no substantial inhibition”. Further, in data set [3], the “uptake of [3H]nucleoside over the 6-min time course” value was “taken up to a lesser degree”. Besides, in data set [4], the “effect of NBMPR on uptake” value is given as “not affected” and the “level of [3H] uptake” value was “low levels”. For the same compound, the “effect of non-radioactive troxacitabine (1 mM) on uptake” value in data set [4] (10 μM [3H]L-troxacitabine) is “no significant effect”. For the same compound, the rate of uptake entry in data set [4] (10 μM, short (0-30s) and prolonged exposures (0-4 h)) was “very slow”.

Source of the values: US20030013660A1, “Dioxolane analogs for improved inter-cellular delivery” (Shire BioChem Inc., priority 2000, published 2003).
